In series [1] the test system is Escherichia coli, Enterococcus faecalis and Bacteroides thetaiotamicron. Put plainly: Bacterial conversion to thioguanine nucleotides (6-TGN) in vitro. Type of series: in vitro ADME. Particulars: log phase cultures of all three strains, 1 mM, 120 minutes. As for the experimental part: Bacterial metabolism of 6-TG was investigated in vitro using the representative gut bacteria Escherichia coli, Enterococcus faecalis and Bacteroides thetaiotamicron. […] In contrast, generation of 6-TGN was minimal over this time period when cultures were incubated with 1 mM 6-MP.

A further series deals with DSS induced colitis. Put plainly: 6-MP in DSS induced colitis over one month. Type of series: in vivo, mice. The conditions noted are these: large doses of 6-MP. The text has this: This discovery was particularly unexpected as these mice lack the ability to form TGNs (the active metabolites) through the conventional metabolic route in the liver and leukocytes. However, formation of the active metabolite was discovered outside the generally understood mechanism. The magnitude of the reduction in disease activity was similar to that found in wild-type mice in which colitis had been induced with DSS. […] Conversion of the related thiopurine, 6-MP, to 6-TGTP was considerably less over the same period consistent with rate-limiting IMPDH in the purine salvage pathway of bacteria.

Series [2] deals with Winnie mice (spontaneous colitis). Put plainly: Spontaneous colitis in Winnie mice, daily gavage up to 14 days. It counts as in vivo. The text has this:
(§1) The vehicle control was water.
Both the colitis and its improvement with treatment [FIGS. 2A and 2(B)] were more marked in the distal colon (DC) of the Winnie mice.

For series [3] the test system is unchanged. Put plainly: Spontaneous colitis in Winnie mice, low dose gavage 28 days. It counts as in vivo.
Text: as §1

Series [4] relates to C57B1/6 WT mice (chronic DSS induced colitis). Put plainly: Chronic DSS-induced colitis in C57Bl/6 WT mice. Type of series: in vivo. As to the method:
as §1
Dextran sodium sulphate (DSS) (36-50 kDa; MP Biochemicals) was administered in the drinking water chronically [0.5% (w/v) for 4 cycles of 5 days on, followed by either 7 or 9 days off].

A further series deals with RaW and Winnie mice. Put plainly: Colitis in Winnie and RaW (Rag-/- x Winnie) mice. It counts as in vivo.
Text: as §1
T and B lymphocytes are not required for the occurrence of spontaneous colitis in Winnie mice. Winnie x Rag^−/− (RaW) mice are Winnie mice that lack T and B lymphocytes. RaW mice spontaneously develop a colitis phenotype with more proximal disease than Winnie [Eri, R D et al; Mucosal. Immunol. 4, 354-364 (2011)].

The test system of series [5] is Winnie mice (spontaneous colitis). As to the method: All the animal experiments were approved by the University of Queensland Animal Ethics Committee. C57B1/6 wild-type (WT) mice were purchased from the Animal Resource Authority, Western Australia and the Hprt^−/−, Winnie and RaW were bred in-house in a pathogen free animal facility. […] 6-MP (MW 170, 6-MP monohydrate, ex Sigma-Aldrich) was dissolved in water. The vehicle control was water.
For DSS induced colitis in Hprt^−/− mice the composite disease activity index (DAI) score was used and this comprised diarrhoea, rectal bleeding and body weight percent loss subscores (0<1% loss; 1=1-5% loss; 2=5-15% loss; 3>15% loss).

For series [6], the system named is HeLa cells expressing LC3-GFP infected with SL1344. Put plainly: Antibacterial autophagy assay. It counts as cell-based. Particulars: 6-TG 50 μM.
Description: Briefly HeLa cells were plated in 12-well plates containing 18 mm glass coverslips at a density of 1×10^5 cells per well in DMEM 24 hours before infections. Cells were treated with TG or mock treated with DMSO for 16 hours prior to infection. S. enterica serovar Typhimurium SL1344 carrying a DsRed2 expression plasmid was grown overnight in Luria-Bertani broth containing 100 μg/mL carbenicillin at 37° C. with aeration and subcultured at a dilution of 1/33 for a further 3 h in Luria-Bertani carbenicillin broth. This culture was further diluted in DMEM 10% serum without antibiotics to yield a multiplicity of infection (MOI) of 100 and added to HeLa LC3-GFP cells. Infections were allowed to proceed for 20 minutes and the cells were washed once in complete medium containing 100 μg/mL gentamicin sulfate and then incubated in fresh high gentamicin medium for an additional 40 minutes. […] Slides were viewed for counting under wide-field fluorescence illumination with a 60× lens (Olympus). The fraction of LC3-GFP-positive bacteria per cell was assessed in randomly chosen fields with at least 90 cells counted for each condition. Bacteria were scored as within autophagosomes only when a complete and closely conforming LC3-GFP “capsule” was visible.
Series [7] relates to Salmonella typhimurium (SL1344) in HeLa cells. Put plainly: Bacterial replication assay.
In series [8] the test system is Hprt−/− mice (DSS induced colitis). Put plainly: Chronic DSS induced colitis in Hprt-/- mice.
Series [9] concerns primary fibroblasts isolated from WT and Hprt−/− mice. Put plainly: Autophagy (LC3-II/β-actin) in primary fibroblasts. It counts as cell-based. As for the experimental part: HeLa, HCT116, HT29, HepG2 and RAW cells were obtained from ATCC and grown in DMEM supplemented with GlutaMAX (Life Technologies), 10% fetal calf serum and 20 μg/ml penicillin/streptomycin. HeLa cells stably expressing LC3-GFP have been described previously (Kabeya Y et al., The EMBO Journal, 2000, 19 (2), 5720-5728; Birmingham C L et al, J. Biol. Chem., 2006, 281 (16), […]). Primary fibroblasts isolated from WT and Hprt^−/− mice were generated from ear punch samples after dissociation with trypsin and cultured in DMEM supplemented with Glutamax and 20% fetal calf serum with antibiotics and passaged up to four times to ensure that they were axenic.
Following treatment cells were treated with TNN (Tris-HCl, NaCl, NP40) lysis buffer. […] Following transfer to PVDF membranes (Invitrogen), detection was performed using rabbit anti-LC3 primary (Sigma), mouse anti-Actin (Sigma) and appropriate fluorescent secondary antibodies (LI-COR Biosciences) and imaged on a LICOR fluorescent imaging system.

[10] abbreviates: WT mice 0.5% DSS, 6-TG 0.5 mg/kg gavage 28 days.
Where [11] appears, read: PC and DC of RaW mice and Winnie controls, 6-TG 2.5 mg/kg.
Where [12] appears, read: RaW and Winnie mice, 6-TG 2.5 mg/kg up to 14 days.

Each structure is given as a SMILES string.

With `Sc1ncnc2nc[nH]c12` [Formulation 6-MP, 3,7-dihydropurine-6-thione], the “6-TGN (6-TGMP, 6-TGDP and 6-TGTP) generation in bacterial pellets” value in series [1] is listed as “minimal”. In addition, in the series with DSS induced colitis, the colitis entry is reported as “no reduction in colitis”.

`Nc1nc2nc[nH]c2c(=S)[nH]1` [Formulation 6-TG, 2-amino-6,7-dihydro-3H-purine-6-thione]: the “spontaneous colitis (histological colitis)” value in series [2] (6-TG 1-2.5 mg/kg daily gavage up to 14 days) is “ameliorated the spontaneous colitis in a dose-dependent manner”. Besides, in series [2] (oral and intra-rectal TG, 1 or 2.5 mg/kg/day), the “pharmacodynamic effect (time to improved colonic histology)” value was “less than two weeks”. For the same compound, the “blinded histological colitis scores PC and DC” value in series [3] (6-TG 0.5 mg/kg/d) is “improved blinded histological colitis scores in both PC and DC”. In series [3] (6-TG 0.5 mg/kg/d or 6-MP 2.5 mg/kg/d), the “combined diarrhoea (diarrhoea and rectal bleeding) score” value is on record as “improved with 6-TG”. In addition, the peripheral blood leukocytes entry in [3] (6-TG 0.5 mg/kg/d or 6-MP 2.5 mg/kg/d, P=0.09) is listed as “tended to reduce peripheral blood leukocytes”. In series [4] (setting [10]), the “DSS colitis, total colitis scores, immune and epithelial damage subscores” value is listed as “improved with 6-TG”; the colon weight entry is reported as “significantly improved”; the combined diarrhoea score result is on record as “significantly improved”. Also, the “peripheral white blood cells” value in [4] (WT mice DSS-treated and untreated, 6-TG 0.5 mg/kg gavage 28 days) is “decreased peripheral white blood cells”. Besides, the body weight gain entry in [4] (juvenile C57B1/6 WT mice, irrespective of DSS, 6-TG 0.5 mg/kg) is on record as “reduction of expected body weight gain”. In addition, in the series on RaW and Winnie mice (setting [11]), the Muc2 expression entry is given as “increased Muc2 expression” and the “inflammation (Ifn-γ, Il-1b)” value is “decreased inflammation”. Moreover, in the series with RaW and Winnie mice (setting [12]), the “blinded histological PC and DC colitis scores” value was “improved blinded histological PC and DC colitis scores”; the goblet cell morphology entry was “restored goblet cell morphology”. Also, the “colitis in mid-colon or proximal colon” value in [5] (intra-rectal 1 mg/kg daily 14 days) was “no improvement”. In addition, the “blinded histological scoring of the distal colon” value in [5] (intra-rectal 1 mg/kg daily 14 days, P<0.01) is “striking improvement”. In addition, the combined diarrhea score entry in series [5] (intra-rectal 1 mg/kg daily, from day 11, vs 6-MP and vehicle) is recorded as “statistically significant improvement”. In addition, the “6-TGN (6-TGMP, 6-TGDP and 6-TGTP) generation in bacterial pellets” value in series [1] is listed as “found in the bacterial pellets”. The “LC3 co-localization with intracellular bacteria” value in series [6] is “significantly increased LC3 co-localization”. Moreover, the “intracellular replication of the bacteria (luminescence)” value in [7] (HeLa cells, 50 or 100 μM 6-TG, 12 h post infection) is “significantly decreased intracellular replication”. Besides, in [7] (over the 12 h period), the “bacterial growth (OD 600 absorbance)” value is listed as “did not alter bacterial growth”. The disease activity entry in [8] (Hprt−/− mice, 0.5% DSS, 6-TG 0.5 mg/kg oral gavage day 28 to 52) is “rapid and appreciable reduction in disease activity”. The immunosuppression result in [8] (Hprt−/− mice, 6-TG 0.5 mg/kg oral gavage) is “not associated with immunosuppression”. Further, the MLN cell counts entry in [8] (Hprt−/− mice, DSS, 6-TG 0.5 mg/kg) is listed as “not depressed by 6-TG”. For the same compound, the “CD3e+CD4+, CD11b+ and CD11c+MHCII+ subset numbers in the MLN” value in series [8] (untreated or DSS exposed Hprt−/− mice, 6-TG 0.5 mg/kg) is given as “not decreased”.

For `CCC(=O)N1CCN(c2ccc(-n3c(=O)ccc4cnc5ccc(-c6cnc7ccccc7c6)cc5c43)cc2C(F)(F)F)CC1` [Torin1], in series [9], the autophagy induction entry is recorded as “autophagy could be induced”.

These data come from patent US12109214B2, “Formulation and treatment methods” (PRODRUGXTEND PTY LTD, priority 2015, dated 2024).
